The text below walks through data of the supplement of paper PMC12317010.

Where a name gives a salt, the structure may show the parent alone.

The series in a line: collision cross section in nitrogen (drift tube, single-field); higher = larger gas-phase ion size.
The mark [1] stands for this setting: ion type: [M-H], ion source: ESI, ion mode: Negative.
Where [2] appears, read: ion type: [M+H], ion source: ESI, ion mode: Positive.
Where [3] appears, read: ion type: [M+Na], ion source: ESI, ion mode: Positive.
The mark [4] stands for this setting: ion source: APCI, ion mode: Positive, ion type: [M]+ (permanent cation).
The mark [5] stands for this setting: ion source: ESI, ion mode: Positive, ion type: [M]+ (permanent cation).
Where [6] appears, read: ion type: [M+H], ion source: APCI, ion mode: Positive.
Setting [7] is: ion type: [M+], ion source: APCI, ion mode: Positive.
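Also: chemical standards at 10 µM analysed by drift tube IMS-QTOF MS in about 3.95 torr nitrogen, mean of duplicate injections differing ≤1%, mass error below 10 ppm.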

With `CC(=O)C(C)=CC1C(C)=CCCC1(C)C` (stereo not drawn) [Isomethyl-alpha-ionone], under setting [1], the “collision cross section in nitrogen” value was 155 Å².

Take `Nc1ccc2c(S(=O)(=O)O)cccc2c1S(=O)(=O)O` [1,5-Naphthalenedisulfonic acid, 2-amino-, sodium salt (1:1)]: the “collision cross section in nitrogen” value under setting [1] is 159.4 Å².

Consider `CCOC(=O)C(Cl)Cc1cc(-n2nc(C)n(C(F)F)c2=O)c(F)cc1Cl` (stereo not drawn) [Carfentrazone-ethyl], for which the “collision cross section in nitrogen” value was determined as 180.3 Å² under setting [2] and 187.9 Å² under setting [3].

Take `CCCCCCCCCCCC[N+](C)(C)Cc1ccccc1` [Benzalkonium chloride C12 (BAC C12)]: the “collision cross section in nitrogen” value runs as follows: under setting [4], 193 Å²; under setting [5], 193.9 Å².

In the case of `CCCCCCCCCCCC(=O)OCC` [Ethyl dodecanoate], under setting [1], the “collision cross section in nitrogen” value turned out to be 162.3 Å².

With `CCOP(=O)(OCC)SCCSCC` [Demeton-S], under setting [3], the “collision cross section in nitrogen” value is listed as 162.4 Å².

In the case of `CC(C)NCC(O)COc1ccc(CC(N)=O)cc1` (stereo not drawn) [Atenolol], the “collision cross section in nitrogen” value under setting [6] came out at 157.9 Å², the “collision cross section in nitrogen” value under setting [2] worked out at 157.8 Å² and the “collision cross section in nitrogen” value under setting [3] came to 164.2 Å².

`COC(=O)CCSCCC(=O)OC` [Dimethyl 3,3'-thiodipropionate]: the “collision cross section in nitrogen” value under setting [3] came to 146.5 Å².

On to `Nc1c(Br)cc([N+](=O)[O-])cc1Br` [2,6-Dibromo-4-nitroaniline], for which, under setting [1], the “collision cross section in nitrogen” value is recorded as 134.9 Å².

For the compound `CCCCOCCOC(=O)c1ccccc1C(=O)OCCOCCCC` [Bis(2-butoxyethyl) phthalate], the “collision cross section in nitrogen” value under setting [3] is 187.5 Å².

On to `O=S1(=O)OCC2C(CO1)C1(Cl)C(Cl)=C(Cl)C2(Cl)C1(Cl)Cl` (stereo not drawn) [Endosulfan sulfate], for which the “collision cross section in nitrogen” value under setting [1] is 173.3 Å².

With `CC(=O)Nc1ccc(C(=O)CCl)cc1` [4'-(Chloroacetyl)acetanilide], the “collision cross section in nitrogen” value under setting [1] is listed as 144.9 Å².

Regarding `CCSC(C)CC1CC(=O)C(C(CC)=NOC/C=C/Cl)=C(O)C1` (stereo not drawn) [Clethodim], the “collision cross section in nitrogen” value under setting [6] came to 187.7 Å², the “collision cross section in nitrogen” value under setting [2] is 187.7 Å², the “collision cross section in nitrogen” value under setting [3] is recorded as 184.9 Å² and the “collision cross section in nitrogen” value under setting [1] worked out at 184.6 Å².

Consider `OCC(CO)(CO)COCC(CO)(CO)CO` [Dipentaerythritol], for which the “collision cross section in nitrogen” value is given as 154.2 Å² under setting [2], 157.9 Å² under setting [3] and 154.6 Å² under setting [1].

Regarding `CCCN(C1CCN(C(=O)C2CCNCC2)CC1)[C@@H]1CCc2ccc(OC)cc2C1`, the “collision cross section in nitrogen” value by setting is: under setting [6], 209 Å²; under setting [2], 199.1 Å²; under setting [3], 201 Å².

With `COc1ccc2[nH]cc(CCNC(C)=O)c2c1` [Melatonin], the “collision cross section in nitrogen” value runs as follows: under setting [6], 153.7 Å²; under setting [2], 153.3 Å²; under setting [3], 156.9 Å²; under setting [1], 156 Å².

As for `CN1CCc2cccc3c2[C@H]1Cc1ccc(O)c(O)c1-3` [Apomorphine hydrochloride], the “collision cross section in nitrogen” value stood at 162.3 Å² under setting [6] and 162.5 Å² under setting [2].

Take `C#C[C@]1(O)CC[C@H]2[C@@H]3CCc4cc(O)ccc4[C@H]3CC[C@@]21C` [17alpha-Ethinylestradiol]: under setting [1], the “collision cross section in nitrogen” value came out at 182.3 Å².

As for `CCN(CCC#N)c1cccc(C)c1` [3-(Ethyl(3-methylphenyl)amino)propanenitrile], the “collision cross section in nitrogen” value under setting [6] came out at 144.7 Å², the “collision cross section in nitrogen” value under setting [2] is recorded as 144.3 Å² and the “collision cross section in nitrogen” value under setting [7] is reported as 143.6 Å².

In the case of `Cc1ccc(N)cc1N` [2,4-Diaminotoluene], the “collision cross section in nitrogen” value under setting [2] is reported as 122.3 Å².

For the compound `O=C(O)c1ccc(S(=O)(=O)O)cc1C(=O)O` [4-Sulfophthalic acid], under setting [1], the “collision cross section in nitrogen” value was 145.3 Å².

Regarding `CC(C)OP(=O)(CP(=O)(OC(C)C)OC(C)C)OC(C)C` [Tetraisopropyl methylenediphosphonate], the “collision cross section in nitrogen” value is 174.6 Å² under setting [6], 185 Å² under setting [3] and 177.7 Å² under setting [1].

As to `Cc1cc(CCC(=O)OCC(C)(C)C2OCC3(CO2)COC(C(C)(C)COC(=O)CCc2cc(C)c(O)c(C(C)(C)C)c2)OC3)cc(C(C)(C)C)c1O` (stereo not drawn) [Sumilizer GA 80], the “collision cross section in nitrogen” value was 268.1 Å² under setting [6], 261.6 Å² under setting [3], 269.1 Å² under setting [7] and 268.7 Å² under setting [1].

For `Cc1nn(-c2cc(NS(C)(=O)=O)c(Cl)cc2Cl)c(=O)n1C(F)F` [Sulfentrazone], the “collision cross section in nitrogen” value runs as follows: under setting [2], 178.2 Å²; under setting [3], 184 Å²; under setting [1], 182.4 Å².

Turning to `CCCC1O[C@@H]2C[C@H]3[C@@H]4CCC5=CC(=O)C=C[C@]5(C)[C@H]4[C@@H](O)C[C@]3(C)[C@]2(C(=O)CO)O1` (stereo partly drawn) [Budesonide], the “collision cross section in nitrogen” value runs as follows: under setting [3], 230.4 Å²; under setting [1], 204.6 Å².

In the case of `CCCCCCOCCOCCO` [2-[2-(Hexyloxy)ethoxy]ethanol], the “collision cross section in nitrogen” value under setting [3] worked out at 151.8 Å².

In the case of `Oc1ccc(/C=C/c2cc(O)cc(O)c2)cc1` [Resveratrol], the “collision cross section in nitrogen” value amounted to 155.1 Å² under setting [7] and 159.3 Å² under setting [1].

Turning to `COc1nc(NC(C)C)nc(NC(C)C)n1` [Prometon], the “collision cross section in nitrogen” value by setting is: under setting [6], 156.1 Å²; under setting [2], 156.5 Å²; under setting [3], 173.7 Å².

As for `CC(=O)c1ccc(O)cc1` [4-Hydroxyacetophenone], under setting [1], the “collision cross section in nitrogen” value was 125.5 Å².

For the compound `O=[N+]([O-])/N=C1\NCCN1Cc1ccc(Cl)nc1` [Imidacloprid], the “collision cross section in nitrogen” value under setting [2] amounted to 156 Å², the “collision cross section in nitrogen” value under setting [3] worked out at 159.5 Å² and the “collision cross section in nitrogen” value under setting [1] is 157.3 Å².

With `C=CCOC(=O)c1ccccc1C(=O)OCC=C` [Diallyl phthalate], the “collision cross section in nitrogen” value under setting [3] is reported as 159 Å².

Take `O=S(=O)(O)c1ccc2cc(O)c(S(=O)(=O)O)cc2c1` [Disodium 3-hydroxynaphthalene-2,7-disulfonate]: under setting [1], the “collision cross section in nitrogen” value is given as 160.1 Å².

In the case of `CCOP(=S)(OCC)ON=C(C#N)c1ccccc1` [Phoxim], the “collision cross section in nitrogen” value under setting [1] is 165.7 Å².

With `CSC1=N[C@@](C)(c2ccccc2)C(=O)N1Nc1ccccc1` [Fenamidone], the “collision cross section in nitrogen” value under setting [6] is reported as 172.6 Å², the “collision cross section in nitrogen” value under setting [2] came out at 172.7 Å² and the “collision cross section in nitrogen” value under setting [1] came out at 174.6 Å².

For the compound `OCCCc1cccnc1` [3-(3-Pyridyl)-1-propanol], the “collision cross section in nitrogen” value runs as follows: under setting [6], 128 Å²; under setting [2], 128.4 Å².

For the compound `Cc1ccc(C)c(S(=O)(=O)O)c1` [2,5-Dimethylbenzenesulfonic acid monohydrate], the “collision cross section in nitrogen” value under setting [1] was 138.2 Å².

Consider `CC(C)c1ccc(O)cc1` [4-Isopropylphenol], for which the “collision cross section in nitrogen” value under setting [1] was found to be 134.1 Å².

For `CCn1c2ccccc2c2cc([N+](=O)[O-])ccc21` [9-Ethyl-3-nitro-9H-carbazole], the “collision cross section in nitrogen” value under setting [2] came out at 152 Å².

Take `CN1CCN(c2ccccc2/C=C2\SCCN(c3ccc(Cl)c(Cl)c3)C2=O)CC1` [Elzasonan]: the “collision cross section in nitrogen” value reads like this: under setting [6], 204 Å²; under setting [2], 203.8 Å²; under setting [3], 211.4 Å².

For `Cc1ccnc(N)c1` [4-Methylpyridin-2-amine], the “collision cross section in nitrogen” value under setting [6] worked out at 118.1 Å² and the “collision cross section in nitrogen” value under setting [2] was 119.5 Å².

As for `CC(C)(C)c1cc([N+](=O)[O-])cc(C(C)(C)C)c1O` [2,6-Di-tert-butyl-4-nitrophenol], the “collision cross section in nitrogen” value under setting [1] was 162.2 Å².

On to `CCCCCc1ccc(O)cc1` [4-Pentylphenol], for which, under setting [1], the “collision cross section in nitrogen” value was 146.9 Å².

In the case of `CCN(CC)c1ccc(C=O)cc1` [4-(Diethylamino)benzaldehyde], the “collision cross section in nitrogen” value stood at 139.4 Å² under setting [6] and 140.3 Å² under setting [2].

As for `COCCOc1cc2cc(C(=O)NC3CCN(C(C)C)CC3)n(CC(=O)Nc3ccc(Cl)cn3)c2cn1`, the “collision cross section in nitrogen” value under setting [6] is on record as 234.1 Å², the “collision cross section in nitrogen” value under setting [2] was 235.6 Å², the “collision cross section in nitrogen” value under setting [3] worked out at 239.2 Å² and the “collision cross section in nitrogen” value under setting [1] was 235.2 Å².

In the case of `CCCCCCCCCCCC[N+](C)(C)C` [Dodecyltrimethylammonium chloride], the “collision cross section in nitrogen” value runs as follows: under setting [4], 175.2 Å²; under setting [5], 175.9 Å².

On to `Nc1ccc(F)c([N+](=O)[O-])c1` [4-Fluoro-3-nitroaniline], for which the “collision cross section in nitrogen” value under setting [1] is given as 121.9 Å².

For `CCCCOC(=O)c1ccccc1C(=O)O` [Monobutyl phthalate], the “collision cross section in nitrogen” value under setting [1] was determined as 151.7 Å².

With `CC(C)(C)c1ccc(OC(=O)c2ccccc2O)cc1` [4-tert-Butylphenyl salicylate], under setting [1], the “collision cross section in nitrogen” value worked out at 168.4 Å².

Regarding `CC(C)(C)C(=O)C(Oc1ccc(Cl)cc1)n1cncn1` (stereo not drawn) [Triadimefon], the “collision cross section in nitrogen” value is on record as 174.6 Å² under setting [6], 173.6 Å² under setting [2] and 167.7 Å² under setting [1].

In the case of `COc1ccc(OC)c(N=Nc2c(O)ccc3ccccc23)c1` [C.I. Solvent Red 80], the “collision cross section in nitrogen” value reads like this: under setting [6], 171.6 Å²; under setting [2], 171.6 Å²; under setting [1], 177.5 Å².

Regarding `Nc1ncnc2[nH]cnc12` [Adenine], the “collision cross section in nitrogen” value is, setting by setting: under setting [6], 124.4 Å²; under setting [2], 125.2 Å²; under setting [1], 120.9 Å².

As for `O=C(O)c1ccccc1C(=O)OCc1ccccc1` [Monobenzyl phthalate], the “collision cross section in nitrogen” value is given as 157.4 Å² under setting [3] and 160.8 Å² under setting [1].

In the case of `COc1nc(C)nc(N)n1` [2-Amino-4-methoxy-6-methyl-1,3,5-triazine], the “collision cross section in nitrogen” value by setting is: under setting [6], 122.7 Å²; under setting [2], 123.4 Å².

As to `CCCCCCc1ccc(O)cc1O` [4-Hexylresorcinol], the “collision cross section in nitrogen” value under setting [1] turned out to be 150.2 Å².
